US20240132473A1, “SULFOXIMIDE SUBSTITUTED INDAZOLE IRAK4 KINASE INHIBITOR, PREPARATION METHOD THEREOF AND USE THEREOF” (Shanghai Xunhe Pharmaceutical Technology Co. Ltd., priority 2021, published 2024)

Tests used:
in vivo [1] = conditions: ICR, mouse, po
Experimental: On the day of administration, observations were made approximately 0.5, 1, 2, 4, and 6 hours after the first administration. During day 2 to day 6 of the observation period, observations were made twice a day, once in the morning and once in the afternoon.
Observations included but not limited to: general conditions, behavioral activities, gait and posture, eyes, mouth, nose, gastrointestinal tract, skin hair and urogenital tract.
Weight data were expressed as mean ±standard deviation. Levene's test and one-way analysis of variance were used for comparison between groups. If there was a difference, Dunnet t test was then used.
The maximum tolerated dose refers to the dose administered when the animal was dying.

hERG potassium channel = hERG potassium channel (Homo sapiens (Human), UniProt Q12809); assay: cell-based; conditions: human
hERG potassium channel, sequence (Q12809 whole entry): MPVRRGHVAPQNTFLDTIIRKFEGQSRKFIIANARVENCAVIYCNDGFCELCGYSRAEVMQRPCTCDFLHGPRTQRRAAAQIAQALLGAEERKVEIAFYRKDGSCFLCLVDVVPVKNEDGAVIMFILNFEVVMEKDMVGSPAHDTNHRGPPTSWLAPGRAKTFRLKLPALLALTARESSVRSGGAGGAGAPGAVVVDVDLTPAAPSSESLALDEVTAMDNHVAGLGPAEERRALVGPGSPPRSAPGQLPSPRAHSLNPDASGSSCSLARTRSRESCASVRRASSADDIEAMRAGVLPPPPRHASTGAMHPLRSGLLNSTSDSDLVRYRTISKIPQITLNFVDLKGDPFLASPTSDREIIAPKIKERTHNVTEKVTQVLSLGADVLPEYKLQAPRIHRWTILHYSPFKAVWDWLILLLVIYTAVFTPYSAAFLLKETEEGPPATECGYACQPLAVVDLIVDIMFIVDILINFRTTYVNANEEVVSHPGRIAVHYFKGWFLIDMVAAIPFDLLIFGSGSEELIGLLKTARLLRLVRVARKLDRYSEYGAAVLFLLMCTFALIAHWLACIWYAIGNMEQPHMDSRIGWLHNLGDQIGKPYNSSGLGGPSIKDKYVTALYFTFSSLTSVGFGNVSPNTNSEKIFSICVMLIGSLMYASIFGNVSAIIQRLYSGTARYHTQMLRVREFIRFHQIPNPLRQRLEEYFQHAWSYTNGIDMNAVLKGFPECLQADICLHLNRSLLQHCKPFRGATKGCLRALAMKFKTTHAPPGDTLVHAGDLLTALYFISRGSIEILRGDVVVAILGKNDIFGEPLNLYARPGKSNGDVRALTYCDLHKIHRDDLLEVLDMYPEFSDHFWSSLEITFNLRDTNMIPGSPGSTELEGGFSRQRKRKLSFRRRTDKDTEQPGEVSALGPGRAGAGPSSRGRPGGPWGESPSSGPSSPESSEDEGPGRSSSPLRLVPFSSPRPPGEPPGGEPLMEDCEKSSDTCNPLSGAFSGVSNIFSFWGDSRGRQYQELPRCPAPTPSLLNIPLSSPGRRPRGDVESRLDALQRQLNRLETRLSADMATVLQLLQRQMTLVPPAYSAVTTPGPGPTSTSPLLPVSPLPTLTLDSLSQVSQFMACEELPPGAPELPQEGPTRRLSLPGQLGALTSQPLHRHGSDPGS
Excerpt: The rapid activation of delayed rectifier outward potassium current (IKr) in humans is mainly mediated by hERG ion channel and participates in human myocardial cell repolarization. Drug blockade of this current will lead to the appearance of QT interval prolongation syndrome in clinical practice, which can easily induce acute arrhythmia and even sudden death.

[2] = tested on: TNF-α secretion in THP-1 cells; assay: Inhibition of LPS-stimulated TNF-α secretion in THP-1 cells (ELISA); format: cell-based; conditions: Homo sapiens, LPS 1 μg/mL, 4.5 hours
Experimental: TNF-α is a key cytokine involved in the inflammatory process of the listed autoimmune disease, such as rheumatoid arthritis, psoriatic arthritis, ankylosing spondylitis, psoriasis, Crohn's disease, ulcerative colitis, etc. In this test, TNF-α secretion was triggered by incubation with bacterial lipopolysaccharides (LPS). […] The 96-well plate was rotated at 2000 rpm for 5 minutes, and then 50 μL of supernatant was taken. The content of TNF-α in the supernatant was determined by human ELISA kit, and IC50 value of the compound was calculated by XL-Fit (table 4).

in vivo [3] = conditions: rat, po; for half-life: SD, in vivo; for AUC(0-t) / Cmax / Tmax: plasma, 25 mg/kg
Experimental: SD rats were used as the test animals.
Standard curve and preparation and processing of quality control samples:
Stock solution was diluted with 50% acetonitrile-water to obtain standard working solutions of 0.04, 0.10, 0.20, 0.40, 1.00, 2.00, 4.00 μg/mL, and quality control working solutions of 0.10, 1.00, 3.00 μg/mL. […] 200 μL of acetonitrile (containing 5 ng/mL of the internal standard loratadine) was added. After the vortex oscillation for 3 minutes, the solutions were centrifuged at 15000 rpm at 4° C. for 15 minutes. 100 μL of the supernatant was taken for LC-MS/MS analysis. WinNonlin ® 8.0 was used to calculate the experimental results.

IRAK4 kinase = IRAK4 kinase (Homo sapiens (Human), UniProt Q9NWZ3); assay: IRAK4 kinase inhibitory activity assay (mobility shift assay, Km ATP); format: biochemical; conditions: MSA, ATP 37 μM (Km ATP)
IRAK4 kinase, sequence (Q9NWZ3 whole entry): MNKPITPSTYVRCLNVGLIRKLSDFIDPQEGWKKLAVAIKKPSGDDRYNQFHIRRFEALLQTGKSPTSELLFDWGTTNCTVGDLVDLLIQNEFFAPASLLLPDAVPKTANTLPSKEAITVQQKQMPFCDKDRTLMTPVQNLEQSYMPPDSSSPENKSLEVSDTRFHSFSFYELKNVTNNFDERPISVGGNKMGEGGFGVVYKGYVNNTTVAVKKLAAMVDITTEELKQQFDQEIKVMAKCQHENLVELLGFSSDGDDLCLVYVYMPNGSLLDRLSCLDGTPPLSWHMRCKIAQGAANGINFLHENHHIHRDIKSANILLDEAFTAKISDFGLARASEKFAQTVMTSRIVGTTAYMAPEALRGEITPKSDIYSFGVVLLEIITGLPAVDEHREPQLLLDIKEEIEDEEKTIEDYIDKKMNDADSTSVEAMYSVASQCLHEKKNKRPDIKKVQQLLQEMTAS
Experimental: The inhibitory activity (IC50) of the compound on IRAK4 kinase under Km ATP was detected by mobility shift assay (MSA). Ten drug concentration gradients were set (initial concentration 1 μM, 3-fold dilution, 2 duplicate wells per concentration). […] After incubation at 28° C. for a period of time, 10 μL of termination buffer was added to terminate the reaction. The conversion rate data was read with Caliper, and then the conversion rate was converted into inhibition rate data. According to the inhibition rate data of each concentration, the IC50 of half inhibitory concentration was calculated by Logit method (Table 3).

Structure (SMILES) | MTD at 6 days (in vivo [1]) | Inhibition rate (%) of hERG current (hERG potassium channel; 5 μM) | Inhibition rate (%) of hERG current (hERG potassium channel; 50 μM) | Inhibition rate (%) of hERG current (hERG potassium channel; 500 μM) | IC50 [2] | half-life (in vivo [3]) | AUC(0-t) (in vivo [3]) | Cmax (in vivo [3]) | Tmax (in vivo [3]) | IC50 (IRAK4 kinase)
CC(C)(O)c1cc2nn(CCS(=N)(=O)c3ccccc3)cc2cc1NC(=O)c1cccc(C(F)(F)F)n1 (centres unmarked) [Compound I-2] | > 2000 mg/kg | -0.5% | 0.7% | 12.3% | 0.3 nM | 330 min | 8100 ng·h/mL | 1580 ng/mL | 6.5 h | 0.5 nM
COc1cc2nn(CCS(=N)(=O)c3ccncc3)cc2cc1NC(=O)c1cccc(C(F)(F)F)n1 (centres unmarked) [Compound I-5] | > 2000 mg/kg | 0.0% | -1.0% | 13.4% | 0.7 nM | 306 min | 8280 ng·h/mL | 1400 ng/mL | 6.2 h | 0.4 nM
COc1cc2nn(CCS(=N)(=O)c3ccccc3)cc2cc1NC(=O)c1cccc(C(F)(F)F)n1 (centres unmarked) [Compound I-1] | > 2000 mg/kg | -1.0% | 2.3% | 15.6% | 0.5 nM | 300 min | 8330 ng·h/mL | 1600 ng/mL | 6.2 h | 0.3 nM
Cc1cc(-c2nc(C(=O)Nc3cc4cn(CCS(=N)(=O)c5ccnc6ccccc56)nc4cc3C(C)(C)O)co2)ccn1 (centres unmarked) [Compound I-29] | > 2000 mg/kg | -3.9% | 1.2% | 13.9% | 0.9 nM | 348 min | 8130 ng·h/mL | 1370 ng/mL | 5.9 h | 0.6 nM
COc1cc2nn(CCS(=N)(=O)c3ncccn3)cc2cc1NC(=O)c1cccc(C(F)(F)F)n1 (centres unmarked) [Compound I-31] | > 2000 mg/kg | 1.7% | -0.2% | 6.7% | 1.3 nM | 270 min | 7980 ng·h/mL | 1300 ng/mL | 4.8 h | 0.6 nM
